Reference: US10959968B2, “Methods for treating c-Met-dependent cancers” (Board of Supervisors of Louisiana State University and …, priority 2016, dated 2021)

Columns and labels:
[1] = system: T-47D breast cancer cells; experiment: HGF-stimulated growth of Met-independent cells, MTT assay; format: cell-based, human; details: similar treatment doses; 72 h
Experimental: (§1) FIG. 3. (A) Effect of HVS treatment on HGF-stimulated growth of Met-dependent MDA-MB-231, MDA-MB-468, MCF-7. and BT-474 breast cancer cells after 72 h treatment period, compared to DMSO as vehicle control. Viable cell count was determined using MTT assay. Vertical bars indicate the mean cell count±SEM of N=3 in each treatment group; (−)-oleocanthal was used as a positive control at 20 μM. (B) Effect of HVS treatment on HGF-stimulated growth of Met-independent T-47D breast cancer cells after 72 h treatment period. Viable cell count was determined using MTT assay. Vertical bars indicate the mean cell count±SEM of N=3 in each treatment group. (C) Cytotoxic effects of HVS on the highly metastatic MDA-MB-231 breast cancer cells at two different concentrations (30 and 60 μM) using LDH cytotoxicity assay. Triton X-100 was used as a positive control to cause the breakdown of all the cells and induce the total possible LDH release. (D) Effects of HVS treatment on the viability of non-tumorigenic human MCF10A mammary epithelial cells after a 24 h treatment period, compared to DMSO as vehicle control. (E) As in panel (A) but without HGF. […] Viable cell count was determined using MTT assay. Vertical bars indicate the mean cell count±SEM of N=3 in each treatment group; doxorubicin was used as a positive control at 10 μM dose. *P<0.05 as compared with vehicle treated control.
[…]. […]

[2] = system: MDA-MB-231, MDA-MB-468, MCF-7 and BT-474 cells; experiment: Growth of breast cancer cells without HGF, MTT assay; format: cell-based, human; details: similar treatment doses; no HGF
Experimental: as §1
[…]. […]

[3] = system: DU145 human prostate cancer cells (pMet, pAkt, pErk); experiment: Western blot of HGF-induced signaling in prostate cancer cells; format: cell-based; details: 30 min pretreatment, 30 min HGF
Experimental: FIG. 4. A) Effect of HVS treatment on HGF-induced c-Met activation in human breast cancer cells using Western Blot analysis. Treatment with HVS caused a significant, dose-responsive inhibition of HGF-induced c-Met phosphorylation in MDA-MB-231, MCF-7, and BT-474 mammary tumor cells with no effect on total c-Met levels after treatment for 72 h, as compared to their respective vehicle-treated control groups. The visualization of β-tubulin was used as a loading control. (B) Effect of HVS on HGF-induced c-Met activation and its downstream mitogenic signaling in DU145 human prostate cancer cells, as compared to vehicle-treated control group, using Western Blot analysis. Cells were pre-treated for 30 minutes with either HVS at 0.1, 0.3, 1, and 5 μM or (−)-oleocanthal at 5, 10, and 20 μM doses in serum-free 0.4-media. 33 ng/mL HGF was then added for 30 minutes. Whole cell lysates were collected and assayed by Western Blot. The visualization of α-tubulin was used as a loading control. Representative Western Blots from each experiment are shown, N=3.
DU145 prostate tumor cells were pretreated for 30 minutes with the indicated compounds. Following pretreatment, cells were pulsed for thirty minutes with HGF, cell lysates were prepared and western blot analysis was performed to identify pMet, pAkt, pErk and tubulin.

TYRO3 (RSE) = TYRO3 (RSE) (Homo sapiens, UniProt Q06418); experiment: SelectScreen Kinase Profiling; format: biochemical; details: read-out: Mean inhibition at 10 μM of HVS (%)
Sequence of TYRO3 (RSE) (Q06418 41-890): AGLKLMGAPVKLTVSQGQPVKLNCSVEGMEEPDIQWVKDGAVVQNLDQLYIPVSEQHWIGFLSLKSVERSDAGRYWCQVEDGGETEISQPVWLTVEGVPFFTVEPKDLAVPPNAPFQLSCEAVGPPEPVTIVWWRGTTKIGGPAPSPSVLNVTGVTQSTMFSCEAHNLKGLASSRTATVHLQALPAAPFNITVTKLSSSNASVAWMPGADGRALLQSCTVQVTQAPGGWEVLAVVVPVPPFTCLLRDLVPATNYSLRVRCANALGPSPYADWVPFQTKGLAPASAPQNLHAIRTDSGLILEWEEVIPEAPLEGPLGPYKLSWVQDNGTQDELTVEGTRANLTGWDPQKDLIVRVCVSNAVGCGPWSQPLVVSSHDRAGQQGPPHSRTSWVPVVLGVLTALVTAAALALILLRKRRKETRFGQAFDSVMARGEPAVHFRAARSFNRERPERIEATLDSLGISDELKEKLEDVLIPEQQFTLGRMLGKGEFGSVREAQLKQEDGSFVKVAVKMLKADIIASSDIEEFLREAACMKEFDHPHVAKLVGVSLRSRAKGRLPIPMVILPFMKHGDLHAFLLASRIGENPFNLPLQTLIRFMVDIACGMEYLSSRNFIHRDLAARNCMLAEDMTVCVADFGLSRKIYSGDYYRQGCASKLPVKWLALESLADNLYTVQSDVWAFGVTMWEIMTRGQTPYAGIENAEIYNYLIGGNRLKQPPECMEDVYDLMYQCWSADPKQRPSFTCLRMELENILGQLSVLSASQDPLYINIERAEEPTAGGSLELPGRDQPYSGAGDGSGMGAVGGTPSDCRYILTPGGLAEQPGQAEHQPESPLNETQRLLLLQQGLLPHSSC

Compound: COc1cc(CCOC(=O)/C=C/c2cc(OC)c(O)c(OC)c2)ccc1O [Compound 8, (E)-4-hydroxy-3-methoxyph-ethyl 3-(4-hydroxy-3,5-dimethoxyphenyl) acrylate]
- effect on T47-D cells which lack c-Met [1]: no discernable effects
- effect on growth in the absence of HGF [2]: no discernable effects
- HGF-induced (Met dependent) signaling [3]: effective even at submicromolar concentrations
- inhibition at 10 µM (TYRO3 (RSE)): 21%
